In patent US20250313563A1, “GLYCOGEN SYNTHASE KINASE 3 INHIBITORS AND USES THEREOF” (The Broad Institute, Inc., priority 2022, published 2025):
Where two headings read alike, the source gives them in different places.

What was measured:
[1] = target: GSK3b (GST-full length GSK3b) (Homo sapiens (Human), UniProt P49841); assay: GSK3b TR-FRET kinase assay; format: biochemical; details: 1 nM GSK3b, 2 μM ATP, 30 minute preincubation, read-out: GSK3-B TR-FRET BIOCHEMICAL (TR-FRET)
In short: (§1)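 Full-length GST-tagged human enzyme (1 nM) is exposed to test compound for 30 min before substrates are added. Phosphorylation of a primed biotinylated glycogen synthase peptide proceeds 100 min at room temperature at low ATP (4 μM α; 2 μM β) or high ATP (1 mM). Product is quantified by TR-FRET.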

[2] = target: GSK3α (GST-full length GSK3α) (Homo sapiens (Human), UniProt P49840); assay: GSK3α TR-FRET kinase assay; format: biochemical; details: 1 nM GSK3α, 4 μM ATP, 30 minute preincubation, read-out: GSK3-A TR-FRET BIOCHEMICAL (TR-FRET)
Sequence of GSK3α (GST-full length GSK3α) (P49840 whole entry): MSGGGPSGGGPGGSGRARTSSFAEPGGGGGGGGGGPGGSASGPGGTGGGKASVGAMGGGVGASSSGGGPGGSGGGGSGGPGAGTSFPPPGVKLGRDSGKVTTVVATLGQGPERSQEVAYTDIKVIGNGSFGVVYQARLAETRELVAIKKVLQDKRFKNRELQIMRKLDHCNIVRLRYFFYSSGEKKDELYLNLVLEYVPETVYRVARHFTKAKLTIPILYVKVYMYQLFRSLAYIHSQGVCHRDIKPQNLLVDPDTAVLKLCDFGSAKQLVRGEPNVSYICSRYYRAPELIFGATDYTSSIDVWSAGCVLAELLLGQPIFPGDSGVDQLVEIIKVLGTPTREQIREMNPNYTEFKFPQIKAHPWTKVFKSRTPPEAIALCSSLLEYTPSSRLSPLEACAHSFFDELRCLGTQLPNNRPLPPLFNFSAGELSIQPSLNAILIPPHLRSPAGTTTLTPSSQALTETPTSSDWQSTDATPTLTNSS
In short: as §1

Sequence of GSK3b (GST-full length GSK3b) (P49841 whole entry): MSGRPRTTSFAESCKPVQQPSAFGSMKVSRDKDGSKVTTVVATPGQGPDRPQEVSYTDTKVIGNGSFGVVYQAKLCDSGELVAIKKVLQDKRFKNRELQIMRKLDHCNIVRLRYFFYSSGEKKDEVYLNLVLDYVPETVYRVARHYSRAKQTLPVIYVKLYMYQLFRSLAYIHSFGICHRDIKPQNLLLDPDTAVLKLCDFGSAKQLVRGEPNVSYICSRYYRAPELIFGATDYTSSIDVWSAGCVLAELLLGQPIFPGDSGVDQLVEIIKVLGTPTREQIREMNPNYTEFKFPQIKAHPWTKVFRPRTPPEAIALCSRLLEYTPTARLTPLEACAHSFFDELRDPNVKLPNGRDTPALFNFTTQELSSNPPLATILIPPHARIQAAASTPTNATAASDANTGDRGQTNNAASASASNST

Row | IC50 ([1]; Table 16, IC50) [nM] | IC50 ([2]; Table 16, IC50) [nM] | IC50 ([1]; Table 16) [nM] | IC50 ([2]; Table 16) [nM] | Structure (SMILES) | also measured
1 | 100 to 1000 | ≤ 100 | – | – | CCC1(c2cccc(N(C)C(=O)c3cnn(C)c3)c2)C2=C(CC(C)(C)CC2=O)Nc2n[nH]cc21 (stereo not drawn) [Compound 912068] | –
2 | ≤ 100 | ≤ 100 | – | – | CCC1(c2cccc(N(C(C)=O)C3CCCC3)c2)C2=C(CC(C)(C)CC2=O)Nc2n[nH]cc21 (stereo not drawn) [Compound 912069] | –
3 | ≤ 100 | ≤ 100 | – | – | CCC1(c2cccc(N(C)C(=O)Cc3ccccc3)c2)C2=C(CC(C)(C)CC2=O)Nc2n[nH]cc21 (stereo not drawn) [Compound 912071] | –
4 | – | – | 100 to 1000 | 100 to 1000 | Cc1[nH]nc2c1C1(CCOCC1)C1=C(CC(C)(C)C(F)C1=O)N2 (stereo not drawn) [Compound 912072] | –
5 | – | – | 100 to 1000 | 100 to 1000 | CC1(C)CC(=O)C2=C(C1)Nc1n[nH]cc1C21CN(CC(F)F)C1 [Compound 912073] | –
6 | – | – | 100 to 1000 | ≤ 100 | CC1(C)CC(=O)C2=C(C1)Nc1n[nH]cc1C21CN(CC(F)(F)F)C1 [Compound 912074] | –
7 | > 5000 | 1000 to 5000 | – | – | CC1(C)CC(=O)C2=C(C1)Nc1n[nH]cc1C21CNC1 [Compound 912075] | –
8 | – | – | 1000 to 5000 | 100 to 1000 | CC1(C)CC(=O)C2=C(C1)Nc1n[nH]cc1C21CN(C2COC2)C1 [Compound 912076] | –
9 | > 5000 | > 5000 | – | – | CC1(C)CC(=O)C2=C(C1)Nc1n[nH]cc1C21CN(c2ccncc2)C1 [Compound 912077] | –
10 | 100 to 1000 | 100 to 1000 | – | – | C[C@H]1CC(=O)C2=C(C1)Nc1n[nH]cc1C21CCOCC1 [Compound 912078] | –
11 | 100 to 1000 | 100 to 1000 | – | – | C[C@@H]1CC(=O)C2=C(C1)Nc1n[nH]cc1C21CCOCC1 [Compound 912079] | –
12 | – | – | 100 to 1000 | 100 to 1000 | O=C1C2=C(Nc3n[nH]cc3C23CCOCC3)[C@H]2CC[C@@H]1C2 [Compound 912080] | –
13 | – | – | 1000 to 5000 | 100 to 1000 | O=C1C2=C(Nc3n[nH]cc3C23CCOCC3)[C@@H]2CC[C@H]1C2 [Compound 912081] | –
14 | – | – | ≤ 100 | ≤ 100 | CC1(C)CC(=O)C2=C(C1)Nc1n[nH]cc1C21CCC(c2ccccc2)CC1 (stereo not drawn) [Compound 912084] | –
15 | > 5000 | 100 to 1000 | – | – | CCC1(c2cccc(C3CCOC(C)(C)C3)c2)C2=C(CC(C)(C)CC2=O)Nc2n[nH]cc21 (stereo not drawn) [Compound 912088] | –
16 | 100 to 1000 | 100 to 1000 | – | – | CCC1(c2cccc(C3CCOC(C)(C)C3)c2)C2=C(CC(C)(C)CC2=O)Nc2n[nH]cc21 (stereo not drawn) [Compound 912089] | –
17 | > 5000 | 100 to 1000 | – | – | CCC1(c2cccc(C3CCOC(C)(C)C3)c2)C2=C(CC(C)(C)CC2=O)Nc2n[nH]cc21 (stereo not drawn) [Compound 912090] | –
18 | > 5000 | > 5000 | – | – | CC[C@]1(c2cccc([C@@H]3CCOC(C)(C)C3)c2)C2=C(CC(C)(C)CC2=O)Nc2n[nH]cc21 [Compound 912091] | –
19 | – | – | ≤ 100 | ≤ 100 | CC1(C)CC(=O)C2=C(C1)Nc1n[nH]cc1C21CCN(S(C)(=O)=O)C1 (stereo not drawn) [Compound 912092] | –
20 | > 5000 | 1000 to 5000 | – | – | CC1(C)CC(=O)C2=C(C1)Nc1n[nH]cc1C21COCCOC1 [Compound 912094] | –
21 | – | – | – | – | CC[C@@]1(c2cccc(C(F)(F)F)c2)C2=C(C[C@H](C)NC2=O)Nc2n[nH]cc21 [Compound 912097] | IC50 ([1]; IC50): > 5000 nM; IC50 ([2]; IC50): 100 to 1000 nM
22 | – | – | – | – | CC[C@]1(c2cccc(C(F)(F)F)c2)C2=C(C[C@H](C)NC2=O)Nc2n[nH]cc21 [Compound 912099] | IC50 ([1]; IC50): > 5000 nM; IC50 ([2]; IC50): > 5000 nM
23 | – | – | 100 to 1000 | ≤ 100 | CCC1(c2cccc(C(F)(F)F)c2)C2=C(Nc3n[nH]cc31)C(C)(C)NC2=O (stereo not drawn) [Compound 912104] | –
24 | > 5000 | > 5000 | – | – | CC1(C)CC(=O)C2=C(C1)Nc1n[nH]cc1C21CCCCC1=O (stereo not drawn) [Compound 912105] | –
25 | 1000 to 5000 | 100 to 1000 | – | – | CC1(C)CC(=O)C2=C(C1)Nc1n[nH]cc1[C@]21CCO[C@@H](C(C)(C)C)C1 [Compound 912106] | –
26 | > 5000 | > 5000 | – | – | CC1(C)CC(=O)C2=C(C1)Nc1n[nH]cc1[C@@]21CCO[C@H](C(C)(C)C)C1 [Compound 912107] | –
27 | – | – | 100 to 1000 | 100 to 1000 | CC1(C)CC(=O)C2=C(C1)Nc1n[nH]cc1[C@]21CCO[C@H](C(C)(C)C)C1 [Compound 912112] | –
